Assay results reported in patent US10804000B2, “High efficiency continuous-flow production of radioisotopes” (priority 2016, dated 2020).

Columns and labels:
[1] = Pre-irradiation solubility tests of lanthanide complexes in the water capture matrix (neutron activation analysis of washes); assay type: physicochemical; conditions: for % Activity in wash 1: first pre-irradiation wash with 0.5 mL ultra-pure H2O, 153Sm at 103 keV, 166Ho at 81 keV; for % Activity in wash 1 / % Activity in wash 2: indicates solubility in capture matrix; for solubility in water: in words, from pre-irradiation washes; for % Activity in wash 2: second pre-irradiation wash with H2O
Description: The solubility of the lanthanide complexes in the water capture matrix was determined by mixing a few milligrams of the lanthanide-containing target solid thoroughly with 0.5 mL of ultra-pure H2O then separating the solution from the solid utilizing centrifugal filter tubes (EMD Millipore). A second wash of the solid was obtained using the same procedure. The solid and the washes were submitted for neutron activation analysis in order to determine the solubility of the lanthanide containing target in H2O.
Post irradiation, the samples were left to cool for a predetermined amount of time to allow any short-lived radioisotopes to decay, before being transferred to the laboratory for treatment and analysis. The capture matrix was filtered and separated from the solid in order to separate any recoiled radiolanthanide. The solid residue and capture matrix were collected for analysis of the activity of the radiolanthanide. The pre-irradiation solubility test washes along with standards were also prepared for analysis. The samples were analyzed for radiolanthanide activity using a High Purity Germanium detector (HPGe) at the representative gamma energy of the radiolanthanide of interest.
All the samples for a particular compound were irradiated as a group, along with standards for calibration purposes and direct comparisons of activities. In samples that were not treated post irradiation by separation (e.g. as in the case of target and capture matrix) the activity of the radiolanthanide is directly related to the total concentration of the corresponding lanthanide. The count rate measured in each sample was normalized to a single point in time to account for decay during measurements. Both pre-irradiation washes were collected to give an indication of the solubility of the lanthanide complex in the capture matrix (H2O). The second wash was obtained to determine if the lanthanide activity detected in the first wash was actually due to solubility of the lanthanide containing target or due to factors such as impurities or the presence of uncomplexed lanthanide that came off in the first wash. […] Radiolanthanides that recoiled out but reformed bonds with the solid compound would appear as retained as well. […] Activity in the capture matrix may also reflect dissolution of the target matrix rather than recoil.

[2] = Irradiation of ammonium molybdate phosphate powder, 99Mo activity in washes, target and capture matrix
Excerpt: Wash 1, Wash 2, and the irradiated molybdenum target were all analyzed for ^99Mo activity using gamma spectroscopy at the prominent ^99Mo peak of 141 KeV.
Post irradiation the capture matrix was separated from the irradiation target and washed an additional time to determine post irradiation solubility (wash 1).

Substance	% Activity in wash 1 [1] [%]	solubility in water [1]	% Activity in wash 2 [1] [%]	also measured
Holmium 4-aminobenzoate [Compound 6]	7.0 ± 1.6	soluble in water	7.7 ± 1.7	
Holmium 8-hydroxyquinolinate [Compound 5]		low solubility in the first wash		
Samarium 4-aminobenzoate [Compound 2]	27.3 ± 3.0	soluble in water	26.8 ± 2.9	
Samarium 8-hydroxyquinolinate [Compound 4]		low		
ammonium molybdate phosphate [Sample 1]				% Activity in wash 1 ([2]; 99Mo, sample 1: powder irradiated 15 min at 8×10^11 n cm^−2 s^−1, contacted with water post irradiation): <1%; % Activity in wash 2 ([2]; 99Mo, sample 1: powder irradiated, contacted with water post irradiation): <1%; 99Mo activity detected in the capture matrix ([2]; sample 1, water contacted post irradiation): less than 1%
ammonium molybdate phosphate [Sample 2]				% Activity in wash 1 ([2]; 99Mo, sample 2: irradiated in contact with water capture matrix, additional wash post irradiation): 1.3%
